Measurements as given in BindingDB's records for doi:10.1021/jm301144g (Human Biomolecular Research Institute, 2012).

Target: TGF-beta receptor type-2 (Homo sapiens, UniProt P37173)
Assay: Inhibition of TGBR2 signaling in human HEK293T cells assessed as inhibition of SMAD activation after 2 to 22 hrs by dual Luciferase Assay

Chain of TGF-beta receptor type-2 (P37173 whole entry): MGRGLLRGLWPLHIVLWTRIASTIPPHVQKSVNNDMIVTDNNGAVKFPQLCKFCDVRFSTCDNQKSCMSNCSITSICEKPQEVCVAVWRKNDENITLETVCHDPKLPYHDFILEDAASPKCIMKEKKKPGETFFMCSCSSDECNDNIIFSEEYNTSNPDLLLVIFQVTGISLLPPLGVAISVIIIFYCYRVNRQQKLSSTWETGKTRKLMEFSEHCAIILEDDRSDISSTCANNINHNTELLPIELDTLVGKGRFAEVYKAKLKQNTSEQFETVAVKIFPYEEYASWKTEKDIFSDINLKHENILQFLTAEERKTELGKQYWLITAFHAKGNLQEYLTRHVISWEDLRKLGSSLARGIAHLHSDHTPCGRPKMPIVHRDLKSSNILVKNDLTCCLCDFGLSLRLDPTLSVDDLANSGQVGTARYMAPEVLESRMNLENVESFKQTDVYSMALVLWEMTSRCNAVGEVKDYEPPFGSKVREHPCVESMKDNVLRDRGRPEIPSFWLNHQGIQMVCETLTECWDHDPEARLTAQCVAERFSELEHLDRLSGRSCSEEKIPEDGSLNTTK

CCOC(=O)C1=C(C)N=C2CC(C)(C)CC(=O)C2C1c1ccc(-c2ccccc2)cc1 (stereo unspecified)
IC50: 460 nM
